Data published in US20250206751A1, “HETEROCYCLIC COMPOUND FOR INDUCING DEGRADATION OF G12D MUTANT KRAS PROTEIN” (Astellas Pharma Inc., priority 2022, published 2025).

Columns and labels:
KRAS G12D protein = molecular target: T1, KRAS G12D protein (Homo sapiens, UniProt P01116, G12D); assay: KRAS degradation activity by Cell ELISA in AsPC-1 (Test Example 1); assay type: cell-based; conditions: AsPC-1 cells, cultured overnight with compound, corrected with β-actin, read-out: DC50 (50% degradation concentration of the amounts of KRAS)
T1 construct: host or cells: AsPC-1
T1 sequence (P01116 1-188 isoform P01116-2 G12D): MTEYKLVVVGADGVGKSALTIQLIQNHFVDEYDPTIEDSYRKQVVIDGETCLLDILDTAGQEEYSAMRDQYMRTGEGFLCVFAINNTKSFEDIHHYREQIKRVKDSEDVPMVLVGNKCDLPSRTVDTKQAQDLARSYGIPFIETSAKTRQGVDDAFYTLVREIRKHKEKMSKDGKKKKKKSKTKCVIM
Summary of the method: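 AsPC-1 cells (KRAS G12D), 2.0×10^4/well, treated overnight with compound (10 points, 10 μM–0.3 nM final) in RPMI 1640/10% FBS. Fixed cells immunostained for G12D-specific Ras and β-actin, with near-IR fluorescence read. Ras/actin ratio scaled DMSO = 0% and actin-only = 100%, and DC50 fitted by Sigmoid-Emax regression.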

[1] = tested on: phosphorylation of threonine 202 (Thr202) and tyrosine 204 (Tyr204) of ERK; assay: ERK phosphorylation inhibitory effect by Cell ELISA in AsPC-1 (Test Example 2); assay type: cell-based, human; conditions: Homo sapiens, ASPC1, AsPC-1 cells, cultured overnight with compound; 1 μM trametinib taken as 0%
Summary of the method: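 AsPC-1 cells (G12D KRAS) treated overnight with compound (10 points, 10 μM to 0.3 nM final), then glyoxal-fixed and immunostained for phospho-ERK with a fluorescent secondary read at 800 nm. IC50 by Sigmoid-Emax regression, with DMSO as 100% and 1 μM trametinib as 0%.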

SMILES | DC50 (KRAS G12D protein) | IC50 [1]
CO[C@@H](C)COc1cc(N(C)[C@H]2CCNC2)c2cc(C3CC3)c(-c3c(C)c(F)cc4[nH]ncc34)c(OCc3ccc(-c4cn([C@H](C(=O)N5C[C@H](O)C[C@H]5C(=O)N[C@@H](CO)c5ccc(-c6scnc6C)cc5)C(C)C)nn4)cc3)c2n1 (atropisomer, axis not shown; (M)) [Example 11, (4R)-1-[(2S)-2-{4-[4-({[(7M)-6-cyclopropyl-7-(6-fluoro-5-methyl-1H-indazol-4-yl)-2-[(2S)-2-methoxypropoxy]-4-{methyl[(3S)-pyrrolidin-3-yl]amino}quinazolin-8-yl]oxy}methyl)phenyl]-1H-1,2,3-triazol-1-yl}-3-methylbutanoyl]-4-hydroxy-N-{(1R)-2-hydroxy-1-[4-(4-methyl-1,3-thiazol-5-yl)phenyl]ethyl}-L-prolinamide] | 10 nM | 24 nM
CO[C@@H](C)COc1nc(N(C)[C@@H]2CCNC2)c2cc(C3CC3)c(-c3c(C)c(F)cc4[nH]ncc34)c(OCc3ccc(-c4cn([C@H](C(=O)N5C[C@H](O)C[C@H]5C(=O)N[C@@H](CO)c5ccc(-c6scnc6C)cc5)C(C)C)nn4)cc3)c2n1 (atropisomer, axis not shown; (M)) [Example 53] | 7 nM | 9 nM
Cc1ncsc1-c1ccc([C@H](CO)NC(=O)[C@@H]2C[C@@H](O)CN2C(=O)[C@H](C(C)C)n2cc(-c3ccc(COc4c(-c5c(C)c(F)cc6[nH]ncc56)c(C5CC5)cc5c(N(C)[C@H]6CCNC6)nc(OC[C@H]6CCCO6)nc45)cc3)nn2)cc1 (atropisomer, axis not shown; (M)) [Example 9, (4R)-1-[(2S)-2-{4-[4-({[(7M) 6-cyclopropyl-7-(6-fluoro-5-methyl-1H-indazol-4-yl)-4-{methyl[(3S)-pyrrolidin-3-yl]amino}-2-{[(2R)-oxolan-2-yl]methoxy}quinazolin-8-yl}oxy}methyl)phenyl]-1H-1,2,3-triazol-1-yl}-3-methylbutanoyl]-4-hydroxy-N-{(1R)-2-hydroxy-1-[4-(4-methyl-1,3-thiazol-5-yl)phenyl]ethyl}-L-prolinamide] | 15 nM | 11 nM
CCn1nccc1-c1ccc([C@H](CO)NC(=O)[C@@H]2C[C@@H](O)CN2C(=O)[C@H](C(C)C)n2cc(-c3ccc(COc4c(-c5c(C)c(F)cc6[nH]ncc56)c(C5CC5)cc5c(N(C)[C@H]6CCNC6)nc(OC[C@H](C)OC)nc45)cc3)nn2)cc1 (atropisomer, axis not shown; (M)) [Example 13] | 10 nM | 8 nM
CCN(c1nc(OC[C@H](C)OC)nc2c(OCc3ccc(-c4cn([C@H](C(=O)N5C[C@H](O)C[C@H]5C(=O)N[C@@H](CO)c5ccc(-c6scnc6C)cc5)C(C)C)nn4)cc3)c(-c3c(C)c(F)cc4[nH]ncc34)c(C3CC3)cc12)[C@H]1CCNC1 (atropisomer, axis not shown; (M)) [Example 50, (4R)-1-[(2S)-2-(4-{4-[({(7M)-6-cyclopropyl-4-{ethyl[(3S)-pyrrolidin-3-yl]amino}-7-(6-fluoro-5-methyl-1H-indazol-4-yl)-2-[(2S)-2-methoxypropoxy]quinazolin-8-yl}oxy)methyl)phenyl}-1H-1,2,3-triazol-1-yl)-3-methylbutanoyl]-4-hydroxy-N-{(1R)-2-hydroxy-1-[4-(4-methyl-1,3-thiazol-5-yl)phenyl]ethyl}-L-prolinamide] | 18 nM | 8 nM
